Experimental data from patent US20250230193A1, “CYCLIC COMPOUND HAVING SELECTIVE KRAS INHIBITORY EFFECT ON HRAS AND NRAS” (CHUGAI SEIYAKU KABUSHIKI KAISHA, priority 2022, published 2025).
*1 amine or outer side, *2 acyl side, *3 side chain or, on linkers, in order; H or OH if unused. Where a SMILES comes first, the peptide text is derived from it. Bridges are numbered along the chain shown (N, C = ends). [ ]: non-standard residue; d: D form. The star is where a group is joined. hPhe(3-Cl-4-CF3) = N[C@@H](CCc1ccc(C(F)(F)F)c(Cl)c1)C(=O)O; NPrPhe(4-CF3) = CCCN[C@@H](Cc1ccc(C(F)(F)F)cc1)C(=O)O; X19 = CCCCN([C@@H](Cc1ccc(C)cc1)C(=O)[*:2])[*:1]; NPrPhe(4-Me) = CCCN[C@@H](Cc1ccc(C)cc1)C(=O)O; 3Oxa8azabicyclo(3.2.1)octane = C1CC2COCC1N2*; NEtPhe(4-Me) = CCN[C@@H](Cc1ccc(C)cc1)C(=O)O; NMePhe(4-Me) = CN[C@@H](Cc1ccc(C)cc1)C(=O)O; NMeGly(cPent) = CN[C@H](C(=O)O)C1CCCC1; Hyp = O=C(O)[C@@H]1C[C@@H](O)CN1; NMeI = CC[C@H](C)[C@H](NC)C(=O)O; NMeD = CN[C@@H](CC(=O)O)C(=O)O; NMeL = CN[C@@H](CC(C)C)C(=O)O; NMeV = CN[C@H](C(=O)O)C(C)C; Morpholide = C1CN(*)CCO1; NMeA = CN[C@@H](C)C(=O)O; NMeAib = CNC(C)(C)C(=O)O; Nle = CCCC[C@H](N)C(=O)O; Piperidide = C1CCN(*)CC1; Ac5c = NC1(C(=O)O)CCCC1; Aze = O=C(O)[C@@H]1CCN1; Sar = CNCC(=O)O

Tests used:
[1] = target: GDP-bound NRAS wild-type protein (Homo sapiens, UniProt P01111); assay: Binding to NRAS by surface plasmon resonance (SPR), Single Cycle Kinetics; details: KD ratio NRAS/KRAS, SPR
[2] = target: GDP-bound HRAS wild-type protein (Homo sapiens, UniProt P01112); assay: Binding to HRAS by surface plasmon resonance (SPR), Single Cycle Kinetics; details: KD ratio HRAS/KRAS, SPR
Sequence of GDP-bound HRAS wild-type protein (P01112 whole entry): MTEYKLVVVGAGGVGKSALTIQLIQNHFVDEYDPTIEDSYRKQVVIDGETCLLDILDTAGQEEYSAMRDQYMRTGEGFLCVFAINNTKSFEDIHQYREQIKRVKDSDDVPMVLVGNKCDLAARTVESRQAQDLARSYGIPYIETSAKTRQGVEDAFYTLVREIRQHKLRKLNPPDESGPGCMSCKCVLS

Sequence of GDP-bound NRAS wild-type protein (P01111 whole entry): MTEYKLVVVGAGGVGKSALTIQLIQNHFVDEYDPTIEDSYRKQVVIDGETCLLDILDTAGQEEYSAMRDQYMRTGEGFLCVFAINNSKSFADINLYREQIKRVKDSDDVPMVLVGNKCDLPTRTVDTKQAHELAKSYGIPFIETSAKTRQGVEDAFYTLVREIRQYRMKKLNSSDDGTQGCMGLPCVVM

SMILES	NRAS/KRAS (ratio of KD for GDP-bound NRAS wild-type to KD for KRAS) [1]	HRAS/KRAS (ratio of KD for GDP-bound HRAS wild-type to KD for KRAS) [2]
CC[C@H](C)[C@@H]1NC(=O)[C@H](CC(C)C)N(C)C(=O)C[C@@H](C(=O)N2CCOCC2)N(C)C(=O)[C@H](C2CCCC2)N(C)C(=O)C2(CCCC2)NC(=O)[C@@H]2C[C@@H](O)CN2C(=O)[C@H](CCc2ccc(C(F)(F)F)c(Cl)c2)NC(=O)CN(C)C(=O)[C@H](Cc2ccc(C)cc2)N(CC)C(=O)CN(C)C(=O)CN(C)C1=O [PP0041] ([NMeL]I[Sar][Sar][NEtPhe(4-Me)][Sar][hPhe(3-Cl-4-CF3)][Hyp][Ac5c][NMeGly(cPent)][NMeD]-Morpholide; lactam N-11)	B (a compound having 3 or more and less than 10 is denoted as B)	C (A compound having a KD ratio of 0.1 or more and less than 3 is denoted as C)
CCO[C@@H]1C[C@H]2C(=O)NC3(CCCC3)C(=O)N(C)[C@@H](C3CCCC3)C(=O)N(C)[C@H](C(=O)N3CCOCC3)CC(=O)N(C)[C@@H](CC(C)C)C(=O)N[C@@H]([C@@H](C)CC)C(=O)N(C)CC(=O)N(C)CC(=O)N(CC)[C@@H](Cc3ccc(C)cc3)C(=O)N(C)CC(=O)N[C@@H](CCc3ccc(C(F)(F)F)c(Cl)c3)C(=O)N2C1 [PP0042] ([NMeL]I[Sar][Sar][NEtPhe(4-Me)][Sar][hPhe(3-Cl-4-CF3)][Hyp](Et)[Ac5c][NMeGly(cPent)][NMeD]-Morpholide; lactam N-11)	C (A compound having a KD ratio of 0.1 or more and less than 3 is denoted as C)	C (A compound having a KD ratio of 0.1 or more and less than 3 is denoted as C)
CC[C@H](C)[C@@H]1NC(=O)[C@H](CC(C)C)N(C)C(=O)C[C@@H](C(=O)N2CCOCC2)N(C)C(=O)[C@H]([C@@H](C)CC)N(C)C(=O)C2(CCCC2)NC(=O)[C@@H]2CCCN2C(=O)[C@H](CCc2ccc(C(F)(F)F)c(Cl)c2)NC(=O)CN(C)C(=O)[C@H](Cc2ccc(C)cc2)N(CC)C(=O)CN(C)C(=O)CN(C)C1=O [PP0043] ([NMeL]I[Sar][Sar][NEtPhe(4-Me)][Sar][hPhe(3-Cl-4-CF3)]P[Ac5c][NMeI][NMeD]-Morpholide; lactam N-11)	C (A compound having a KD ratio of 0.1 or more and less than 3 is denoted as C)	C (A compound having a KD ratio of 0.1 or more and less than 3 is denoted as C)
CC[C@H](C)[C@@H]1NC(=O)[C@H](CC(C)C)N(C)C(=O)C[C@@H](C(=O)N2CCOCC2)N(C)C(=O)[C@H](C(C)C)N(C)C(=O)C2(CCCC2)NC(=O)[C@@H]2CCCN2C(=O)[C@H](CCc2ccc(C(F)(F)F)c(Cl)c2)NC(=O)CN(C)C(=O)[C@H](Cc2ccc(C)cc2)N(CC)C(=O)CN(C)C(=O)CN(C)C1=O [PP0044] ([NMeL]I[Sar][Sar][NEtPhe(4-Me)][Sar][hPhe(3-Cl-4-CF3)]P[Ac5c][NMeV][NMeD]-Morpholide; lactam N-11)	C (A compound having a KD ratio of 0.1 or more and less than 3 is denoted as C)	C (A compound having a KD ratio of 0.1 or more and less than 3 is denoted as C)
CC[C@H](C)[C@@H]1NC(=O)[C@H](CC(C)C)N(C)C(=O)C[C@@H](C(=O)N2CCOCC2)N(C)C(=O)[C@H](CC(C)C)N(C)C(=O)C2(CCCC2)NC(=O)[C@@H]2CCCN2C(=O)[C@H](CCc2ccc(C(F)(F)F)c(Cl)c2)NC(=O)CN(C)C(=O)[C@H](Cc2ccc(C)cc2)N(CC)C(=O)CN(C)C(=O)CN(C)C1=O [PP0045] ([NMeL]I[Sar][Sar][NEtPhe(4-Me)][Sar][hPhe(3-Cl-4-CF3)]P[Ac5c][NMeL][NMeD]-Morpholide; lactam N-11)	C (A compound having a KD ratio of 0.1 or more and less than 3 is denoted as C)	C (A compound having a KD ratio of 0.1 or more and less than 3 is denoted as C)
CCCC[C@@H]1NC(=O)[C@H](CCc2ccc(C(F)(F)F)c(Cl)c2)NC(=O)CN(C)C(=O)[C@H](Cc2ccc(C)cc2)N(C)C(=O)[C@@H]2CCN2C(=O)[C@H](C)N(C)C(=O)[C@H]([C@@H](C)CC)NC(=O)[C@H](CC(C)C)N(C)C(=O)C[C@@H](C(=O)N2CCCCC2)N(C)C(=O)[C@H](CC(C)C)NC(=O)C(C)(C)N(C)C1=O [PP0047] ([NMeL]I[NMeA][Aze][NMePhe(4-Me)][Sar][hPhe(3-Cl-4-CF3)][Nle][NMeAib]L[NMeD]-Piperidide; lactam N-11)	C (A compound having a KD ratio of 0.1 or more and less than 3 is denoted as C)	C (A compound having a KD ratio of 0.1 or more and less than 3 is denoted as C)
CCCC[C@@H]1NC(=O)[C@H](CCc2ccc(C(F)(F)F)c(Cl)c2)NC(=O)CN(C)C(=O)[C@H](Cc2ccc(C)cc2)N(CC)C(=O)[C@@H]2CCN2C(=O)[C@H](C)N(C)C(=O)[C@H]([C@@H](C)CC)NC(=O)[C@H](CC(C)C)N(C)C(=O)C[C@@H](C(=O)N2CCCCC2)N(C)C(=O)[C@H](CC(C)C)NC(=O)C(C)(C)N(C)C1=O [PP0048] ([NMeL]I[NMeA][Aze][NEtPhe(4-Me)][Sar][hPhe(3-Cl-4-CF3)][Nle][NMeAib]L[NMeD]-Piperidide; lactam N-11)	C (A compound having a KD ratio of 0.1 or more and less than 3 is denoted as C)	C (A compound having a KD ratio of 0.1 or more and less than 3 is denoted as C)
CCCC[C@@H]1NC(=O)[C@H](CCc2ccc(C(F)(F)F)c(Cl)c2)NC(=O)CN(C)C(=O)[C@H](Cc2ccc(C)cc2)N(C)C(=O)CN(C)C(=O)CN(C)C(=O)[C@H]([C@@H](C)CC)NC(=O)[C@H](CC(C)C)N(C)C(=O)C[C@@H](C(=O)N2CCCCC2)N(C)C(=O)[C@H](CC(C)C)NC(=O)C(C)(C)N(C)C1=O [PP0049] ([NMeL]I[Sar][Sar][NMePhe(4-Me)][Sar][hPhe(3-Cl-4-CF3)][Nle][NMeAib]L[NMeD]-Piperidide; lactam N-11)	C (A compound having a KD ratio of 0.1 or more and less than 3 is denoted as C)	C (A compound having a KD ratio of 0.1 or more and less than 3 is denoted as C)
CCCC[C@@H]1NC(=O)[C@H](CCc2ccc(C(F)(F)F)c(Cl)c2)NC(=O)CN(C)C(=O)[C@H](Cc2ccc(C)cc2)N(CC)C(=O)CN(C)C(=O)CN(C)C(=O)[C@H]([C@@H](C)CC)NC(=O)[C@H](CC(C)C)N(C)C(=O)C[C@@H](C(=O)N2CCCCC2)N(C)C(=O)[C@H](CC(C)C)NC(=O)C(C)(C)N(C)C1=O [PP0050] ([NMeL]I[Sar][Sar][NEtPhe(4-Me)][Sar][hPhe(3-Cl-4-CF3)][Nle][NMeAib]L[NMeD]-Piperidide; lactam N-11)	B (a compound having 3 or more and less than 10 is denoted as B)	C (A compound having a KD ratio of 0.1 or more and less than 3 is denoted as C)
CC[C@H](C)[C@@H]1NC(=O)[C@H](CC(C)C)N(C)C(=O)C[C@@H](C(=O)N2C3CCC2COC3)N(C)C(=O)[C@H](C2CCCC2)N(C)C(=O)C2(CCCC2)NC(=O)[C@@H]2CCCN2C(=O)[C@H](CCc2ccc(C(F)(F)F)c(Cl)c2)NC(=O)CN(C)C(=O)[C@H](Cc2ccc(C)cc2)N(CC)C(=O)CN(C)C(=O)CN(C)C1=O [PP0051] ([NMeL]I[Sar][Sar][NEtPhe(4-Me)][Sar][hPhe(3-Cl-4-CF3)]P[Ac5c][NMeGly(cPent)][NMeD]-{3Oxa8azabicyclo(3.2.1)octane}; lactam N-11)	C (A compound having a KD ratio of 0.1 or more and less than 3 is denoted as C)	C (A compound having a KD ratio of 0.1 or more and less than 3 is denoted as C)
CCCN1C(=O)[C@@H]2CCN2C(=O)[C@H](C)N(C)C(=O)[C@H]([C@@H](C)CC)NC(=O)[C@H](CC(C)C)N(C)C(=O)C[C@@H](C(=O)N2CCOCC2)N(C)C(=O)[C@H](C2CCCC2)N(C)C(=O)C2(CCCC2)NC(=O)[C@@H]2CCCN2C(=O)[C@H](CCc2ccc(C(F)(F)F)c(Cl)c2)NC(=O)CN(C)C(=O)[C@@H]1Cc1ccc(C)cc1 [PP0052] ([NMeL]I[NMeA][Aze][NPrPhe(4-Me)][Sar][hPhe(3-Cl-4-CF3)]P[Ac5c][NMeGly(cPent)][NMeD]-Morpholide; lactam N-11)	C (A compound having a KD ratio of 0.1 or more and less than 3 is denoted as C)	B (a compound having 3 or more and less than 10 is denoted as B)
CCCN1C(=O)[C@@H]2CCN2C(=O)[C@H](C)N(C)C(=O)[C@H]([C@@H](C)CC)NC(=O)[C@H](CC(C)C)N(C)C(=O)C[C@@H](C(=O)N2CCOCC2)N(C)C(=O)[C@H](C2CCCC2)N(C)C(=O)C2(CCCC2)NC(=O)[C@@H]2CCCN2C(=O)[C@H](CCc2ccc(C(F)(F)F)c(Cl)c2)NC(=O)CN(C)C(=O)[C@@H]1Cc1ccc(C(F)(F)F)cc1 [PP0053] ([NMeL]I[NMeA][Aze][NPrPhe(4-CF3)][Sar][hPhe(3-Cl-4-CF3)]P[Ac5c][NMeGly(cPent)][NMeD]-Morpholide; lactam N-11)	C (A compound having a KD ratio of 0.1 or more and less than 3 is denoted as C)	C (A compound having a KD ratio of 0.1 or more and less than 3 is denoted as C)
CCCCN1C(=O)[C@@H]2CCN2C(=O)[C@H](C)N(C)C(=O)[C@H]([C@@H](C)CC)NC(=O)[C@H](CC(C)C)N(C)C(=O)C[C@@H](C(=O)N2CCOCC2)N(C)C(=O)[C@H](C2CCCC2)N(C)C(=O)C2(CCCC2)NC(=O)[C@@H]2CCCN2C(=O)[C@H](CCc2ccc(C(F)(F)F)c(Cl)c2)NC(=O)CN(C)C(=O)[C@@H]1Cc1ccc(C)cc1 [PP0055] ([NMeL]I[NMeA][Aze][X19][Sar][hPhe(3-Cl-4-CF3)]P[Ac5c][NMeGly(cPent)][NMeD]-Morpholide; lactam N-11)	C (A compound having a KD ratio of 0.1 or more and less than 3 is denoted as C)	C (A compound having a KD ratio of 0.1 or more and less than 3 is denoted as C)
